Reference: patent US20230181464A1, “COMPOSITIONS FOR DELIVERY OF BIOACTIVE AGENTS INTO HAIR FOLLICLES” (FOLLICLE PHARMA LTD, priority 2020, published 2023)
Read-outs that look alike come from different tables or passages of the source.

Columns and labels:
[1] = cited from earlier work
C57bl mice [2] = test: Testosterone-induced alopecia model in mice, hair cover (Example 2); type: in vivo; conditions: oral, 100 uL once daily; testosterone-injected mice
C57bl mice [3] = test: Testosterone-induced alopecia in mice, hair cover over 28 d (Example 3); type: in vivo; conditions: oral once daily
Method: (§1) Hair on the backs of C57bl mice were shaved with electric clippers and subsequent application of ‘hair removal cream’ (Veet, Oxy Reckit Benckiser, Chartes, France). Twenty-four hours following hair removal, mice received daily subcutaneous injections of Testosterone, 1 mg/mouse, at the neck region. Twenty-four hours after the first Testosterone injection mice started receiving treatment as per Table 6 below. Topical formulations were applied onto the entire shaved back skin. The hair cover was analyzed by ImagJ software.

[4] = system: DHT (dihydrotestosterone); test: Skin DHT expression at Day 28 (Example 3); type: in vivo, mice
Method: as §1

[5] = Blood concentration of dutasteride at Day 28 (Example 3); type: in vivo; conditions: C57bl, mice, Oral, daily dose 5-10 ug/mouse, read-out: Blood conc (ng/ml) of dutasteride
[6] = Human, 0.5 mg PO, from the literature; cited from earlier work
[7] = drug substance listed in Table 16

For `C1=C/COCc2cc(ccc2OCCN2CCCC2)Nc2nccc(n2)-c2cccc(c2)COC/1` [Pacritinib], the logP [1, 7] is listed as “logP 4.58”.
For `CC(=O)Oc1c(C)c(C)c2c(c1C)CCC(C)(CCC[C@H](C)CCC[C@H](C)CCCC(C)C)O2` (some centres unmarked) [Tocopherol acetate], the logP [1, 7] is given as “acetate LogP 10.8”.
In the case of `N#CC[C@H](C1CCCC1)n1cc(-c2ncnc3[nH]ccc23)cn1` [Ruxolitinib], the logP [1] is listed as “Ruxolitinib logP, 2.48”.
For `CC(C)(C)NC(=O)[C@H]1CC[C@H]2[C@@H]3CC[C@H]4NC(=O)C=C[C@]4(C)[C@H]3CC[C@]12C` [Oral finasteride, finasteride], the “% hair cover at 21 days” value (C57bl mice [2]) was 20%.
For `O=C(OOC(=O)c1ccccc1)c1ccccc1` [Benzoyl peroxide], the logP [1, 7] is listed as “LogP 2.75”.
For `C[C@]12C=CC(=O)N[C@@H]1CC[C@@H]1[C@@H]2CC[C@]2(C)[C@@H](C(=O)Nc3cc(C(F)(F)F)ccc3C(F)(F)F)CC[C@@H]12` [dutasteride], the “% hair cover at 21 days” value (C57bl mice [2]) was 30%, the “Group Mean Hair cover (%)” value (C57bl mice [3]; Study Day 0) was 0.0% and the “Group Mean Hair cover (%)” value (C57bl mice [3]; Study Day 7) was 0.0%. For the same compound, the “Group Mean Hair cover (%)” value (C57bl mice [3]; Study Day 14) was 2.3%, the “Group Mean Hair cover (%)” value (C57bl mice [3]; Study Day 21) was 5.2% and the “Group Mean Hair cover (%)” value (C57bl mice [3]; Study Day 28) was 22.3%. For the same compound, the “DHT expression in the skin (in words)” value ([4]; mice) was “did not exhibit reduced concentrations of DHT in the skin”, the “Mean DHT conc. (nmol/L)/group” value ([4]; skin, oral 5-10 ug/mouse x 1/d) was 22.91 nmol/L and the concentration at 28 day [5] was 39 ng/mL. The “Plasma Concentration of Dutasteride” value [6] was 23.60 ng/mL.
For `CCOC(=O)c1ccc(C#Cc2ccc3c(c2)C(C)(C)CCS3)nc1` [Tazarotene], the logP [1, 7] is given as “logP 5.6”.
In the case of `O=C(Nc1c(Cl)cncc1Cl)c1ccc(OC(F)F)c(OCC2CC2)c1` [Roflumilast], the logP [1, 7] is given as “logP 4.47”.
